Data on ten molecules can be found in ChEMBL document CHEMBL1201862, “PubChem BioAssay data set” (2004).

Common to all, as to experiment: growth of human tumour cells (NCI), 48 h
Experiment [1] has as its system CCRF-CEM.
Experiment [2] has as its system SF-295.
The test system of experiment [3] is MDA-MB-231.
The subject of experiment [4] is UACC-257.
Experiment [5] has as its system CAKI-1.
Experiment [6] has as its system NCI-H460.
Experiment [7] has as its system NCI-H23.
In experiment [8] the test system is HOP-92.
In experiment [9] the test system is OVCAR-4.
In experiment [10] the test system is SNB-19.
For experiment [11], the system named is HT-29.
The test system of experiment [12] is SK-MEL-28.
In experiment [13] the test system is TK-10.
Experiment [14] has as its system SN12C.
For experiment [15], the system named is SF-268.
For experiment [16], the system named is OVCAR-5.
The test system of experiment [17] is UO-31.
In experiment [18] the test system is RXF 393.
In experiment [19] the test system is PC-3.

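Compound exposure: 48 hours, 5 concentrations, 96-well plates. GI50: concentration for 50% inhibition of growth.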 The source made the active and inactive calls. Cut-off read from the data, not from the text of the source: active = GI50 up to about 1.1 µM and inactive = higher.

On to `CC1OC(OC2C(CO)OC(O[C@H]3CC[C@@]4(C)C(=CC[C@H]5[C@@H]6C[C@@H]7O[C@](O)(CC[C@H](C)COC8OC(CO)C(O)C(O)C8O)[C@@H](C)[C@@H]7[C@@]6(C)CC[C@@H]54)C3)C(OC3OC(C)C(O)C(O)C3O)C2O)C(O)C(O)C1O` (some centres not stated), for which the GI50 in [1] was 1.42 µM (inactive); in [2], 4.41 µM (inactive); in experiment [3] it was 8.55 µM (inactive); in experiment [4], 6.64 µM (inactive); in experiment [5] it was 1.77 µM (inactive); in [6], 4.81 µM (inactive). For the same molecule, the GI50 in experiment [7] was 4.29 µM (inactive); in experiment [8], 3.56 µM (inactive); in experiment [9], 7.96 µM (inactive); in [10], 2.8 µM (inactive); in experiment [11], 11.9 µM (inactive); in experiment [12], 2.94 µM (inactive). For the same molecule, the GI50 in experiment [13] is > 73.3 µM (inactive); in experiment [14], 10 µM (inactive); in [15], 3.36 µM (inactive); in [16], 10.8 µM (inactive); in [17], 3.63 µM (inactive); in [18] it was 5.11 µM (inactive). The GI50 in experiment [19] is 4.48 µM (inactive).

Consider `C[C@]12CC[C@H]3[C@@H](CC=C4C[C@@H](O)CC[C@@]43C)[C@@H]1CC[C@@H]2N(CCO)CCO`, for which the GI50 is 46.2 µM (inactive) in experiment [1]; 57.5 µM (inactive) in experiment [2]; > 100 µM (inactive) in experiment [3]; 52.6 µM (inactive) in experiment [4]; 45.3 µM (inactive) in experiment [5]; 33.2 µM (inactive) in [6]. For the same molecule, the GI50 is > 100 µM (inactive) in experiment [7]; 64 µM (inactive) in [8]; > 100 µM (inactive) in experiment [9]; 68.1 µM (inactive) in [10]; 29 µM (inactive) in experiment [11]; 96.2 µM (inactive) in experiment [12]. Also, the GI50 in [13] was 42.3 µM (inactive); in [14] it was 33 µM (inactive); in experiment [15] it was 36 µM (inactive); in experiment [16], 55.1 µM (inactive); in [17], 51.8 µM (inactive); in experiment [18], 36.1 µM (inactive). Besides, in [19], the GI50 is 50.9 µM (inactive).

For `COc1cc(OCc2nc3cc(C(F)(F)F)ccc3nc2-c2ccccc2)cc(OC)c1OC`, the GI50 in [1] was > 100 µM (inactive); in [2], 47.3 µM (inactive); in experiment [3], > 100 µM (inactive); in experiment [4], > 100 µM (inactive); in experiment [5], > 100 µM (inactive); in [6], > 100 µM (inactive). Besides, the GI50 in experiment [7] was 87.3 µM (inactive); in experiment [8], > 100 µM (inactive); in experiment [9], 95.3 µM (inactive); in experiment [10], 94.6 µM (inactive); in experiment [11], > 100 µM (inactive); in experiment [12], 65.3 µM (inactive). For the same molecule, the GI50 was 70.3 µM (inactive) in [13]; > 100 µM (inactive) in experiment [15]; > 100 µM (inactive) in experiment [16]; > 100 µM (inactive) in experiment [17]; 19.5 µM (inactive) in [18]; 98.9 µM (inactive) in experiment [19].

For the molecule `CNC(=O)C1CCCN1C(=O)C(Cc1c[nH]cn1)NC(=O)C1CCC(=O)N1` (configuration not stated), the GI50 in experiment [1], in experiment [2], in experiment [3], in experiment [5], in [6] and in [7] was > 100 µM (inactive) throughout. In addition, the GI50 in [8], in experiment [9], in experiment [10], in experiment [11], in experiment [12] and in experiment [13] was > 100 µM (inactive) each time. Besides, the GI50 in experiment [14], in experiment [15], in experiment [16], in [17], in experiment [18] and in [19] was > 100 µM (inactive) in each case.

As for `NC1=NN(c2ccccc2)C2(O)c3ccncc3C3=NN(c4ccccc4)C(=O)C132` (configuration not stated), the GI50 in [1] is > 10 µM (inactive); in experiment [2] it was > 100 µM (inactive); in experiment [3], > 100 µM (inactive); in [4] it was > 100 µM (inactive); in experiment [5] it was > 100 µM (inactive); in experiment [6], > 100 µM (inactive). Moreover, the GI50 in experiment [7] is > 100 µM (inactive); in experiment [8], > 100 µM (inactive); in experiment [9], 51.2 µM (inactive); in experiment [10], > 100 µM (inactive); in experiment [11] it was > 100 µM (inactive); in experiment [12] it was > 100 µM (inactive). Moreover, the GI50 in experiment [14], in experiment [15], in experiment [16], in experiment [17], in experiment [18] and in experiment [19] was > 100 µM (inactive) each time.

Consider `CC(C)(C)[Si](C)(C)OCC#C[C@@]1(O)CCCCC1CC(Sc1ccccc1)Sc1ccccc1` (some centres not stated), for which the GI50 in [1] is 11.8 µM (inactive); in experiment [2], 14.7 µM (inactive); in experiment [3], 16.9 µM (inactive); in [4], 15.5 µM (inactive); in experiment [5], 10.7 µM (inactive); in experiment [6], 15.2 µM (inactive). The GI50 is 14.9 µM (inactive) in experiment [7]; 15.6 µM (inactive) in experiment [8]; 13.9 µM (inactive) in [9]; 15.4 µM (inactive) in experiment [10]; 14 µM (inactive) in [11]; 16.3 µM (inactive) in experiment [12]. Also, the GI50 in experiment [13] is 17.9 µM (inactive); in [14], 11.6 µM (inactive); in [16] it was 14.2 µM (inactive); in experiment [17] it was 13.9 µM (inactive); in [18], 12.5 µM (inactive); in [19], 13.5 µM (inactive).

On to `COc1ccc(/C=C2\C[C@H]3[C@@H]4CC=C5C[C@@H](O)CC[C@]5(C)[C@H]4CC[C@]3(C)\C2=N\O)cc1`, for which the GI50 is 4.58 µM (inactive) in [1]; 6.98 µM (inactive) in experiment [2]; 35.2 µM (inactive) in [3]; 7.21 µM (inactive) in experiment [4]; 2.58 µM (inactive) in [5]; 34.4 µM (inactive) in experiment [6]. Besides, the GI50 in experiment [7] was 16.9 µM (inactive); in experiment [8], 25.6 µM (inactive); in experiment [9] it was 51.5 µM (inactive); in experiment [10] it was 25.8 µM (inactive); in experiment [11], 16.1 µM (inactive); in experiment [12], 24.2 µM (inactive). Moreover, the GI50 in experiment [13] was 27.6 µM (inactive); in experiment [14], 18.1 µM (inactive); in experiment [15], 4.95 µM (inactive); in experiment [17] it was 14.3 µM (inactive); in experiment [18], 12.7 µM (inactive); in experiment [19], 8.45 µM (inactive).

Regarding `Cc1ccc(NC2=NCCO2)c2c1CCC2`, the GI50 in [1] is 37.2 µM (inactive); in [2], > 100 µM (inactive); in experiment [3], 19.7 µM (inactive); in experiment [5] it was > 100 µM (inactive); in experiment [6], 27.5 µM (inactive); in experiment [7], 32.2 µM (inactive). Moreover, the GI50 in experiment [8] was 27.3 µM (inactive); in experiment [9], 48.9 µM (inactive); in experiment [10] it was 58.9 µM (inactive); in experiment [11], 33.3 µM (inactive); in experiment [12], 32.8 µM (inactive); in experiment [13], > 100 µM (inactive). In addition, the GI50 was 45 µM (inactive) in experiment [14]; 41.8 µM (inactive) in experiment [15]; 26 µM (inactive) in experiment [16]; > 100 µM (inactive) in experiment [17]; 26.8 µM (inactive) in experiment [18]; 25.4 µM (inactive) in experiment [19].

In the case of `COC(=O)C1=CS/C(=C2\S[C@@H]3[C@H](S2)[C@H]2C=C[C@@H]3C2)S1`, the GI50 in experiment [1] is 17.6 µM (inactive); in [2] it was 2.96 µM (inactive); in experiment [3], > 100 µM (inactive); in [4], 66.5 µM (inactive); in [5], 7.14 µM (inactive); in experiment [6] it was 34.9 µM (inactive). For the same molecule, the GI50 is > 100 µM (inactive) in experiment [7]; 79.8 µM (inactive) in [8]; > 100 µM (inactive) in [9]; 77.1 µM (inactive) in [10]; 13.1 µM (inactive) in experiment [11]; 62.7 µM (inactive) in experiment [12]. For the same molecule, the GI50 was > 100 µM (inactive) in [13]; > 100 µM (inactive) in experiment [14]; 38.7 µM (inactive) in experiment [15]; 46.1 µM (inactive) in [17]; 29.6 µM (inactive) in experiment [18]; 51.6 µM (inactive) in experiment [19].

For the molecule `O=C1/C(=C\c2ccc([N+](=O)[O-])cc2)CS(=O)(=O)C/C1=C/c1ccc([N+](=O)[O-])cc1`, the GI50 in experiment [1] is 0.264 µM (active); in [2], 1.74 µM (inactive); in experiment [3], 0.193 µM (active); in [4], 1.81 µM (inactive); in [5] it was 1.4 µM (inactive); in experiment [6], 0.515 µM (active). The GI50 in experiment [7] is 0.904 µM (active); in experiment [8] it was 1.91 µM (inactive); in experiment [9], 0.342 µM (active); in [10] it was 3.24 µM (inactive); in [11], 0.357 µM (active); in [12] it was 1.13 µM (inactive). Besides, the GI50 in experiment [13] is 0.787 µM (active); in experiment [15], 0.773 µM (active); in experiment [16] it was 1.36 µM (inactive); in experiment [17] it was 0.176 µM (active); in experiment [18] it was 0.482 µM (active); in experiment [19], 0.392 µM (active).
